The source of these data is patent publication US6903113B2, “Urea substituted imidazopyridines” (3M Innovative Properties Company, priority 2000, dated 2005).

The test system of one assay is interferon (α). The assay can be described thus: Cytokine Induction in Human Cells: interferon (α) by ELISA. The assay is classed as cell-based. Also on record: key to Lowest Effective Concentration Interferon: A “*” indicates that no induction was seen at any of the tested concentrations. The settings on record: human PBMC, 18 to 24 hours incubation, compounds generally tested at 30-0.014 μM; for minimal effective concentration: read-out: Lowest Effective Concentration Interferon. The source says: (§1) An in vitro human blood cell system is used to assess cytokine induction. Activity is based on the measurement of interferon and tumor necrosis factor (α) (IFN and TNF, respectively) secreted into culture media as described by Testerman et. al. In “Cytokine Induction by the Immunomodulators Imiquimod and S-27609”, Journal of Leukocyte Biology, 58, 365-372 (September, 1995).
(§2) Whole blood from healthy human donors is collected by venipuncture into EDTA vacutainer tubes. Peripheral blood mononuclear cells (PBMC) are separated from whole blood by density gradient centrifugation using Histopaque®-1077. Blood is diluted 1:1 with Dulbecco's Phosphate Buffered Saline (DPBS) or Hank's Balanced Salts Solution (HBSS). The PBMC layer is collected and washed twice with DPBS or HBSS and resuspended at 4×10^6 cells/mL in RPMI complete. The PBMC suspension is added to 48 well flat bottom sterile tissue culture plates (Costar, Cambridge, Mass. or Becton Dickinson Labware, Lincoln Park, N.J.) containing an equal volume of RPMI complete media containing test compound.
(§3) The compounds are solubilized in dimethyl sulfoxide (DMSO). The DMSO concentration should not exceed a final concentration of 1% for addition to the culture wells. The compounds are generally tested at concentrations ranging from 30-0.014 μM.
(§4) The solution of test compound is added at 60 μM to the first well containing RPMI complete and serial 3 fold dilutions are made in the wells. The PBMC suspension is then added to the wells in an equal volume, bringing the test compound concentrations to the desired range (30-0.014 μM). The final concentration of PBMC suspension is 2×10^6 cells/mL. The plates are covered with sterile plastic lids, mixed gently and then incubated for 18 to 24 hours at 37° C. in a 5% carbon dioxide atmosphere.
(§5) Following incubation the plates are centrifuged for 10 minutes at 1000 rpm (˜200×g) at 4° C. The cell-free culture supernatant is removed with a sterile polypropylene pipet and transferred to sterile polypropylene tubes. Samples are maintained at −30 to −70° C. until analysis. The samples are analyzed for interferon (α) by ELISA and for tumor necrosis factor (α) by ELISA or IGEN Assay
Interferon (α) concentration is determined by ELISA using a Human Multi-Species kit from PBL Biomedical Laboratories, New Brunswick, N.J. Results are expressed in pg/mL.
(§6) The table below lists the lowest concentration found to induce interferon and the lowest concentration found to induce tumor necrosis factor for each compound.
On the technique in general: An ELISA detects its analyte on a solid surface through an enzyme-linked reagent.

In assay [1] the test system is tumor necrosis factor (α). The assay can be described thus: Cytokine Induction in Human Cells: tumor necrosis factor (α) by ELISA or IGEN Assay. Type of assay: cell-based. The settings on record: human PBMC, 18 to 24 hours incubation, compounds generally tested at 30-0.014 μM; for minimal effective concentration: read-out: Lowest Effective Concentration Tumor Necrosis Factor. Also on record: key to Lowest Effective Concentration Tumor Necrosis Factor: A “*” indicates that no induction was seen at any of the tested concentrations.
Source text: as §1, §2, §3, §4, §5
Tumor necrosis factor (α) (TNF) concentration is determined using ELISA kits available from Biosource International, Camarillo, Calif. Alternately, the TNF concentration can be determined by Origen® M-Series Immunoassay and read on an IGEN M-8 analyzer from IGEN International, Gaithersburg, Md. The immunoassay uses a human TNF capture and detection antibody pair from Biosource International, Camarillo, Calif. Results are expressed in pg/mL.
as §6

On to `CCOCc1nc2c(N)nc(C)cc2n1CCCCNC(=O)Nc1cccc(C#N)c1` [Example 41], for which the minimal effective concentration in the assay with interferon (α) was 10 µM; in assay [1], 30 µM.

Consider `CCOCc1nc2c(N)nc(C)c(C)c2n1CCC1CCN(C(=S)NCCc2ccccc2)CC1` [Example 72], for which the figures for the minimal effective concentration (with interferon (α); in assay [1]) were 0.37 µM and 1.11 µM, respectively.

On to `Cc1nc(N)c2ncn(CCCCNC(=O)NS(=O)(=O)c3ccc(Cl)cc3)c2c1C` [Example 31], for which the “Lowest Effective Concentration Interferon” value in the assay with interferon (α) is reported as “*”. Further, in assay [1], the “Lowest Effective Concentration Tumor Necrosis Factor” value is “*”.

In the case of `CCOCc1nc2c(N)nc(C)c(C)c2n1CCC1CCN(C(=S)Nc2ccc(OC)cc2)CC1` [Example 73], the minimal effective concentration worked out at 0.12 µM in the assay on interferon (α) and 1.11 µM in assay [1].

Regarding `COc1ccc(NC(=S)NCCCCn2cnc3c(N)nc(C)c(C)c32)cc1` [Example 35], the minimal effective concentration stood at 3.33 µM in the assay on interferon (α) and 30 µM in assay [1].

On to `Cc1nc(N)c2ncn(CCCCNC(=O)NC(C)(C)C)c2c1C` [Example 17], for which the minimal effective concentration with interferon (α) worked out at 30 µM. In assay [1], the “Lowest Effective Concentration Tumor Necrosis Factor” value was “*”.

As to `CCOCc1nc2c(N)nc(C)c(C)c2n1CCC1CCN(C(=O)Nc2cccc(C#N)c2)CC1` [Example 60], the minimal effective concentration with interferon (α) is 0.37 µM; in assay [1], 1.11 µM.

As to `CCOCc1nc2c(N)nc(C)c(C)c2n1CCC1CCN(C(=O)Nc2cccc(C(C)=O)c2)CC1` [Example 62], the minimal effective concentration in the assay on interferon (α) is 0.37 µM; in assay [1], 1.11 µM.

`CCOCc1nc2c(N)nc(C)c(C)c2n1CCC1CCN(C(=O)N2CCOCC2)CC1` [Example 66, 2-(ethoxymethyl)-6,7-dimethyl-1-{2-[1-(morpholin-4-ylcarbonyl)piperidin-4-yl]ethyl}-1H-imidazo[4,5-c]pyridin-4-amine]: the minimal effective concentration with interferon (α) is 1.11 µM; in assay [1], 10 µM.

Take `CCOCc1nc2c(N)nc(C)cc2n1CCCCNC(=S)Nc1ccccc1` [Example 50]: the minimal effective concentration in the assay with interferon (α) was 0.37 µM; in assay [1], 3.33 µM.

For the molecule `CCOCc1nc2c(N)nc(C)cc2n1CCCCNC(=O)N[C@@H]1C[C@H]1c1ccccc1` (relative stereo) [Example 46, N-{4-[4-amino-2-(ethoxymethyl)-6-methyl-1H-imidazo[4,5-c]pyridin-1-yl]butyl}-N′-[(1R*,2S*)-2-phenylcyclopropyl]urea], the minimal effective concentration in the assay on interferon (α) was 3.33 µM; in assay [1] it was 10 µM.

Regarding `CCOCc1nc2c(N)nc(C)c(C)c2n1CCC1CCN(C(=O)Nc2ccc(OC)cc2OC)CC1` [Example 65], the minimal effective concentration in the assay on interferon (α) is 0.37 µM; in assay [1], 1.11 µM.

Consider `CCOCc1nc2c(N)nc(C)c(C)c2n1CCC1CCN(C(=O)NC2CCCCC2)CC1` [Example 58], for which the minimal effective concentration in the assay with interferon (α) was determined as 0.37 µM; in assay [1], 3.33 µM.

For `CCCCc1nc2c(N)nc(C)c(C)c2n1CCCCNS(=O)(=O)c1ccc(F)cc1` [Example 3, N-[4-(4-Amino-2-butyl-6,7-dimethyl-1H-imidazo[4,5-c]pyridin-1-yl)butyl]-4-fluorobenzenesulfonamide Hydrate], the minimal effective concentration with interferon (α) turned out to be 0.01 µM; in assay [1] it was 0.37 µM.

As for `CCOCc1nc2c(N)nc(C)cc2n1CCCCNC(=O)NCC(=O)OCC` [Example 40], the minimal effective concentration in the assay with interferon (α) was found to be 3.33 µM. The “Lowest Effective Concentration Tumor Necrosis Factor” value in assay [1] is “*”.

For `CCCCNC(=O)NCCCCn1c(COCC)nc2c(N)nc(C)cc21` [Example 38], the minimal effective concentration with interferon (α) came to 3.33 µM; in assay [1], 30 µM.

Take `CNC(=S)NCCCCn1cnc2c(N)nc(C)c(C)c21` [Example 32]: the “Lowest Effective Concentration Interferon” value with interferon (α) is reported as “*”. Besides, the “Lowest Effective Concentration Tumor Necrosis Factor” value in assay [1] is “*”.

Turning to `CCOCc1nc2c(N)nc(C)c(C)c2n1CCC1CCN(C(=O)NS(=O)(=O)c2ccccc2)CC1` [Example 69], the minimal effective concentration with interferon (α) is 3.33 µM. Besides, in assay [1], the “Lowest Effective Concentration Tumor Necrosis Factor” value is “*”.

In the case of `Cc1nc(N)c2ncn(CCCCNC(=S)Nc3ccccc3)c2c1C` [Example 33], the minimal effective concentration (in the assay with interferon (α); in assay [1]) was 3.33 µM in each case.

Regarding `CCOCc1nc2c(N)nc(C)cc2n1CCCCNC(=O)Nc1ccccc1` [Example 39], the minimal effective concentration came to 3.33 µM in the assay on interferon (α) and 10 µM in assay [1].

In the case of `CCOCc1nc2c(N)nc(C)c(C)c2n1CCC1CCN(C(=O)Nc2ccc(N(C)C)cc2)CC1` [Example 63], the minimal effective concentration in the assay on interferon (α) came out at 0.014 µM; in assay [1] it was 1.11 µM.

For `CCCCNC(=O)NCCCCn1cnc2c(N)nc(C)c(C)c21` [Example 18], the “Lowest Effective Concentration Interferon” value in the assay with interferon (α) is listed as “*”. Also, the “Lowest Effective Concentration Tumor Necrosis Factor” value in assay [1] is on record as “*”.

Regarding `Cc1nc(N)c2ncn(CCCCNC(=O)NC3CCCCC3)c2c1C` [Example 20], the minimal effective concentration with interferon (α) stood at 30 µM. Moreover, the “Lowest Effective Concentration Tumor Necrosis Factor” value in assay [1] is recorded as “*”.

Turning to `CCOCc1nc2c(N)nc(C)c(C)c2n1CCC1CCN(C(=O)N[C@@H]2C[C@H]2c2ccccc2)CC1` (relative stereo) [Example 67, 4-{2-[4-amino-2-(ethoxymethyl)-6,7-dimethyl-1H-imidazo[4,5-c]pyridin-1-yl]ethyl}-N-[(1R*,2S*)-2-phenylcyclopropyl]piperidine-1-carboxamide], the results for the minimal effective concentration (in the assay with interferon (α); in assay [1]) were 1.11 µM and 3.33 µM, respectively.

Turning to `CCCCNC(=O)N1CCC(CCn2c(COCC)nc3c(N)nc(C)c(C)c32)CC1` [Example 56], the minimal effective concentration was determined as 1.11 µM in the assay on interferon (α) and 3.33 µM in assay [1].

On to `CCOCc1nc2c(N)nc(C)c(C)c2n1CCC1CCN(C(=O)Nc2cccc(SC)c2)CC1` [Example 64], for which the minimal effective concentration in the assay with interferon (α) came to 0.37 µM; in assay [1], 1.11 µM.

With `CSc1cccc(NC(=O)NCCCCn2cnc3c(N)nc(C)c(C)c32)c1` [Example 25], the “Lowest Effective Concentration Interferon” value in the assay on interferon (α) is “*”. Also, the minimal effective concentration in assay [1] was 3.33 µM.

Consider `Cc1nc(N)c2ncn(CCCCNC(=O)NS(=O)(=O)c3ccccc3)c2c1C` [Example 29], for which, in the assay with interferon (α), the “Lowest Effective Concentration Interferon” value is recorded as “*”. In addition, the “Lowest Effective Concentration Tumor Necrosis Factor” value in assay [1] is on record as “*”.

Regarding `CCOCc1nc2c(N)nc(C)c(C)c2n1CCC1CCN(C(=O)N(C)c2ccccc2)CC1` [Example 68, 4-{2-[4-amino-2-(ethoxymethyl)-6,7-dimethyl-1H-imidazo[4,5-c]pyridin-1-yl]ethyl}-N-methyl-N-phenylpiperidine-1-carboxamide], the values for the minimal effective concentration (in the assay with interferon (α); in assay [1]) were 0.37 µM and 1.11 µM, respectively.

For the molecule `CCOCc1nc2c(N)nc(C)c(C)c2n1CCC1CCN(C(=O)NC(C)C)CC1` [Example 54], the minimal effective concentration is 1.11 µM in the assay with interferon (α) and 3.33 µM in assay [1].

Take `CCOCc1nc2c(N)nc(C)c(C)c2n1CCC1CCN(C(=O)NC(C)(C)C)CC1` [Example 55]: the figures for the minimal effective concentration (in the assay on interferon (α); in assay [1]) were 3.33 µM and 10 µM, respectively.

As for `Cc1ccc(S(=O)(=O)NC(=O)NCCCCn2cnc3c(N)nc(C)c(C)c32)cc1` [Example 30], the “Lowest Effective Concentration Interferon” value with interferon (α) is “*”. Besides, in assay [1], the “Lowest Effective Concentration Tumor Necrosis Factor” value is “*”.

As to `CCOCc1nc2c(N)nc(C)cc2n1CCCCNC(=O)Nc1ccc(OC)cc1OC` [Example 45], the results for the minimal effective concentration (in the assay with interferon (α); in assay [1]) were 3.33 µM and 10 µM, respectively.

On to `CCOCc1nc2c(N)nc(C)c(C)c2n1CCC1CCN(C(=O)Nc2cccc(OC)c2)CC1` [Example 61], for which the minimal effective concentration in the assay on interferon (α) amounted to 0.37 µM; in assay [1], 1.11 µM.

On to `CCOCc1nc2c(N)nc(C)cc2n1CCCCNC(=S)NC` [Example 49], for which the minimal effective concentration in the assay on interferon (α) came out at 3.33 µM; in assay [1], 30 µM.
